# Patent US7750003B2, “Compounds-943” (AstraZeneca AB, priority 2006, dated 2010)
# Target: recombinant mTOR (FLAG-tagged, residues 1362-2549) (Homo sapiens, UniProt P42345)
# Experiment: In vitro mTOR kinase assay (Test (a), AlphaScreen)
# Format: biochemical
# Details: ATP 20 μM, read-out: Test (a): IC50 versus mTOR kinase
# Experimental: (a) In Vitro mTOR Kinase Assay
# Following expression in the mammalian HEK293 cell line, expressed protein was purified using the FLAG epitope tag using standard purification techniques.
# Aliquots (2 μl) of each compound dilution were placed into a well of a Greiner 384-well low volume (LV) white polystyrene plate (Greiner Bio-one).
# These assay solutions were incubated for 2 hours at room temperature.
# The resultant signals arising from laser light excitation at 680 nm were read using a Packard Envision instrument.
# The phosphorylated biotinylated peptide that is associated with AlphaScreen Streptavidin donor beads forms a complex with the p70 S6 Kinase (T389) 1A5 Monoclonal Antibody that is associated with Alphascreen Protein A acceptor beads. Upon laser light excitation at 680 nm, the donor bead: acceptor bead complex produces a signal that can be measured. Accordingly, the presence of mTOR kinase activity results in an assay signal. In the presence of an mTOR kinase inhibitor, signal strength is reduced.
# mTOR enzyme inhibition for a given test compound was expressed as an IC50 value.
# Sequence of recombinant mTOR (FLAG-tagged, residues 1362-2549) (P42345 1362-2549): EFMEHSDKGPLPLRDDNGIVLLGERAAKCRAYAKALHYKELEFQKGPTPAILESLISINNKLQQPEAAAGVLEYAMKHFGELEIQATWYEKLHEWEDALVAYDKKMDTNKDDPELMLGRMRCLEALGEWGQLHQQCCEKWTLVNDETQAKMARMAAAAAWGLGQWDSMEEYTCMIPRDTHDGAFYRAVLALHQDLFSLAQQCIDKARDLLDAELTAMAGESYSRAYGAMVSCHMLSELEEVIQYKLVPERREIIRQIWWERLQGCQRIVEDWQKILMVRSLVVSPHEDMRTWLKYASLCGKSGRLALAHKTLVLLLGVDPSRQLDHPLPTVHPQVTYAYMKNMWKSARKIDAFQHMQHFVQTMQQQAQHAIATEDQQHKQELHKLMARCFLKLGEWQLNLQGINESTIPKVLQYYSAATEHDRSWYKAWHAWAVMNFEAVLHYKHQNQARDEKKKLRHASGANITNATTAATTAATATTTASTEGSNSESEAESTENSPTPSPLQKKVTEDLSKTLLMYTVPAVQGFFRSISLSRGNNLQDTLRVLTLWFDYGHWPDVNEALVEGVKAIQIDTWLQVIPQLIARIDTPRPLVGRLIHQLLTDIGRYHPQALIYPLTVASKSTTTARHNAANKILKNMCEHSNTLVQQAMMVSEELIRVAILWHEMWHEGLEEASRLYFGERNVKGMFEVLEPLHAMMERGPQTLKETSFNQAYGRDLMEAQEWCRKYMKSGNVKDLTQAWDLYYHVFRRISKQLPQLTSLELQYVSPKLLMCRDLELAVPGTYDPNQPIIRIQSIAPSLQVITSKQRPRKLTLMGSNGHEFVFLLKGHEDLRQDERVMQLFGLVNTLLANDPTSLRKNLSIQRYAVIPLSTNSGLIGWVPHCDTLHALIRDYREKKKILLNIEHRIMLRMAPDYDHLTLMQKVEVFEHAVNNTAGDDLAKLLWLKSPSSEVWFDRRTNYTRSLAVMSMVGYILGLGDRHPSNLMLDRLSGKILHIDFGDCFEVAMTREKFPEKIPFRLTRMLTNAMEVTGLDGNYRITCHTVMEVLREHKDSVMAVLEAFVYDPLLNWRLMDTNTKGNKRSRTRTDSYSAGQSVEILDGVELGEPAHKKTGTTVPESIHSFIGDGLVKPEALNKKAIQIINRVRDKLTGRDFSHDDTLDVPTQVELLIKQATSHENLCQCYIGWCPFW
row,IC50 [nM],Compound
1,2300,"COCCN(C)C(=O)Nc1ccc(-c2nc(CS(C)(=O)=O)cc(N3CCOC[C@@H]3C)n2)cc1 [Example 2a, 1-(2-methoxyethyl)-1-methyl-3-[4-[4-[(3S)-3-methylmorpholin-4-yl]-6-(methylsulfonylmethyl)pyrimidin-2-yl]phenyl]urea]"
2,3600,"C[C@H]1COCCN1c1cc(CS(C)(=O)=O)nc(-c2ccc(NC(=O)N(C)CCN(C)C)cc2)n1 [Example 35j, 1-(2-dimethylaminoethyl)-1-methyl-3-[4-[4-[(3S)-3-methylmorpholin-4-yl]-6-(methylsulfonylmethyl)pyrimidin-2-yl]phenyl]urea]"
3,600,"COCCNC(=O)Nc1ccc(-c2nc(CS(C)(=O)=O)cc(N3CCOC[C@@H]3C)n2)cc1OC [Example 4e, 1-(2-methoxyethyl)-3-[2-methoxy-4-[4-[(3S)-3-methylmorpholin-4-yl]-6-(methylsulfonylmethyl)pyrimidin-2-yl]phenyl]urea]"
4,560,"Cc1oncc1NC(=O)Nc1ccc(-c2nc(CS(C)(=O)=O)cc(N3CCOC[C@@H]3C)n2)cc1 [Example 22e, 3-[4-[4-[(3S)-3-methylmorpholin-4-yl]-6-(methylsulfonylmethyl)pyrimidin-2-yl]phenyl]-1-(5-methyl-1,2-oxazol-4-yl)urea]"
5,11,"C[C@H]1COCCN1c1cc(CS(=O)(=O)CCO)nc(-c2ccc(NC(=O)NC3CC3)cc2)n1 [Example 43d, 3-cyclopropyl-1-[4-[4-(2-hydroxyethylsulfonylmethyl)-6-[(3S)-3-methylmorpholin-4-yl]pyrimidin-2-yl]phenyl]urea]"
6,440,"C[C@H]1COCCN1c1cc(CS(C)(=O)=O)nc(-c2ccc(NC(=O)Nc3ccccc3)c(Cl)c2)n1 [Example 3b, 1-[2-Chloro-4-[4-[(3S)-3-methylmorpholin-4-yl]-6-(methylsulfonylmethyl)pyrimidin-2-yl]phenyl]-3-phenyl-urea]"
7,2200,"C[C@H]1COCCN1c1cc(C(C)(C)S(C)(=O)=O)nc(-c2ccc(NC(=O)Nc3ccc(F)cn3)cc2)n1 [Example 24y, 3-(5-fluoropyridin-2-yl)-1-[4-[4-[(3S)-3-methylmorpholin-4-yl]-6-(2-methylsulfonylpropan-2-yl)pyrimidin-2-yl]phenyl]urea]"
8,36,"CNC(=O)Nc1ccc(-c2nc(CS(=O)(=O)C(C)C)cc(N3CCOCC3)n2)cc1 [Example 20k, 3-methyl-1-[4-[4-morpholin-4-yl-6-(propan-2-ylsulfonylmethyl)pyrimidin-2-yl]phenyl]urea]"
9,1700,"CCc1cccc(NC(=O)Nc2ccc(-c3nc(CS(C)(=O)=O)cc(N4CCOCC4)n3)cc2)c1 [Example 7o, 1-(3-ethylphenyl)-3-[4-[4-(methylsulfonylmethyl)-6-morpholin-4-yl-pyrimidin-2-yl]phenyl]urea]"
10,620,"CC(C)S(=O)(=O)Cc1cc(N2CCOC[C@@H]2C)nc(-c2ccc(NC(=O)NCCN(C)C)cc2)n1 [Example 20s, 3-(2-dimethylaminoethyl)-1-[4-[4-[(3S)-3-methylmorpholin-4-yl]-6-(propan-2-ylsulfonylmethyl)pyrimidin-2-yl]phenyl]urea]"
11,3400,"CCNC(=O)NC1CCN(c2nc(N3CCOC[C@@H]3C)cc(C(C)(C)S(C)(=O)=O)n2)CC1 [Example 24o, 1-ethyl-3-[1-[4-[(3S)-3-methylmorpholin-4-yl]-6-(2-methylsulfonylpropan-2-yl)pyrimidin-2-yl]-4-piperidyl]urea]"
12,720,"CN(C)CCNC(=O)Nc1ccc(-c2nc(CS(C)(=O)=O)cc(N3CCOCC3)n2)cc1 [Example 45j, 1-(2-dimethylaminoethyl)-3-[4-[4-(methylsulfonylmethyl)-6-morpholin-4-yl-pyrimidin-2-yl]phenyl]urea]"
13,82,"COCCCNC(=O)Nc1ccc(-c2nc(CS(C)(=O)=O)cc(N3CCOCC3)n2)cc1 [Example 45c, 1-(3-methoxypropyl)-3-[4-[4-(methylsulfonylmethyl)-6-morpholin-4-yl-pyrimidin-2-yl]phenyl]urea]"
14,1000,"CN(C)C(=O)CNC(=O)Nc1ccc(-c2nc(CS(C)(=O)=O)cc(N3CCOCC3)n2)cc1 [Example 45z, N,N-dimethyl-2-[[4-[4-(methylsulfonylmethyl)-6-morpholin-4-yl-pyrimidin-2-yl]phenyl]carbamoylamino] acetamide]"
15,87,"CNC(=O)CS(=O)(=O)Cc1cc(N2CCOC[C@@H]2C)nc(-c2ccc(NC(=O)NC3CC3)cc2)n1 [Example 43a, 2-[[2-[4-(cyclopropylcarbamoylamino)phenyl]-6-[(3S)-3-methylmorpholin-4-yl]pyrimidin-4-yl]methylsulfonyl]-N-methyl-acetamide]"
16,430,"C[C@H]1COCCN1c1cc(C(C)(C)S(C)(=O)=O)nc(-c2ccc(NC(=O)NCc3cnn(C)c3)nc2)n1 [Example 24bi, 1-[5-[4-[(3S)-3-methylmorpholin-4-yl]-6-(2-methylsulfonylpropan-2-yl)pyrimidin-2-yl]pyridin-2-yl]-3-[(1-methylpyrazol-4-yl)methyl]urea]"
17,4300,"Cc1n[nH]c(C)c1NC(=O)Nc1ccc(-c2nc(CS(C)(=O)=O)cc(N3CCOC[C@@H]3C)n2)cc1 [Example 22i, 1-(3,5-dimethyl-1H-pyrazol-4-yl)-3-[4-[4-[(3S)-3-methylmorpholin-4-yl]-6-(methylsulfonylmethyl)pyrimidin-2-yl]phenyl]urea]"
18,3200,"C[C@H]1COCCN1c1cc(CS(C)(=O)=O)nc(-c2ccc(NC(=O)N3CCOCC3)cc2)n1 [Example 35d, N-[4-[4-[(3S)-3-methylmorpholin-4-yl]-6-(methylsulfonylmethyl)pyrimidin-2-yl]phenyl]morpholine-4-carboxamide]"
19,11,"CNC(=O)Nc1ccc(-c2nc(CS(=O)(=O)CCO)cc(N3CCOC[C@@H]3C)n2)cc1 [Example 19e, 1-[4-[4-(2-hydroxyethylsulfonylmethyl)-6-[(3S)-3-methylmorpholin-4-yl]pyrimidin-2-yl]phenyl]-3-methyl-urea]"
20,48,"CNC(=O)Nc1ccc(-c2nc(CS(=O)(=O)c3nc(C)cs3)cc(N3CCOC[C@@H]3C)n2)cc1 [Example 33h, 3-methyl-1-[4-[4-[(3S)-3-methylmorpholin-4-yl]-6-[(4-methyl-1,3-thiazol-2-yl)sulfonylmethyl]pyrimidin-2-yl]phenyl]urea]"
21,1.6,"C[C@H]1COCCN1c1cc(CN2CCS(=O)(=O)CC2)nc(-c2ccc(NC(=O)NC3CC3)cc2)n1 [Example 50, 3-Cyclopropyl-1-[4-[4-[(1,1-dioxo-1,4-thiazinan-4-yl)methyl]-6-[(3S)-3-methylmorpholin-4-yl]pyrimidin-2-yl]phenyl]urea]"
22,920,"CCNC(=O)Nc1cccc(-c2nc(CS(C)(=O)=O)cc(N3CCOC[C@@H]3C)n2)c1 [Example 8h, 3-Ethyl-1-[3-[4-[(3S)-3-methylmorpholin-4-yl]-6-(methylsulfonylmethyl)pyrimidin-2-yl]phenyl]urea]"
23,1800,"CC(=O)NCCS(=O)(=O)Cc1cc(N2CCOC[C@@H]2C)nc(-c2ccc(NC(=O)NC3CC3)cc2)n1 [Example 43j, N-[2-[[2-[4-(cyclopropylcarbamoylamino)phenyl]-6-[(3S)-3-methylmorpholin-4-yl]pyrimidin-4-yl]methylsulfonyl]ethyl]acetamide]"
24,42,"CS(=O)(=O)Cc1cc(N2CCOCC2)nc(-c2ccc(NC(=O)Nc3ccon3)cc2)n1 [Example 34a, 1-[4-[4-(methylsulfonylmethyl)-6-morpholin-4-yl-pyrimidin-2-yl]phenyl]-3-(1,2-oxazol-3-yl)urea]"
